Usually IC50 stands for the point on the concentration scale where inhibition reaches its midpoint. By melting point is commonly meant the temperature, or range, at which the solid turns liquid.

Molecules are shown by their SMILES.

From US6727275B2, “Pyrrolidinone derivatives” (UCB, S.A./N.V., priority 2001, dated 2004) come the findings set out here.

Data set [1] concerns the target T1, CCR2 (Homo sapiens, UniProt P41597).
T1 sequence (P41597 1-360 isoform P41597-2): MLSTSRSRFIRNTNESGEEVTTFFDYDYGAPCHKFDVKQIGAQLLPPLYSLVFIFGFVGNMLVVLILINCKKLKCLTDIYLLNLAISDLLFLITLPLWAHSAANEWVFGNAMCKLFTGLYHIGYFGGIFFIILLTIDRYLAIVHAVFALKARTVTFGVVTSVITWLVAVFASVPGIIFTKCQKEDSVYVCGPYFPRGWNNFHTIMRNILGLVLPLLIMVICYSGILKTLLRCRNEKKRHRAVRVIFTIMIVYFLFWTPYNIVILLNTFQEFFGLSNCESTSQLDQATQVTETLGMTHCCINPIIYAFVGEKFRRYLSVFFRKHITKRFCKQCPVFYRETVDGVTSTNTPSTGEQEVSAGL
The data set is described as follows: Binding assay: inhibition of 125I-MCP-1 binding to THP-1 cells. Further details: CCR2 is also expressed in the human monocytic cell line THP-1; endogenous in cells; host or cells: THP-1 (human monocytic cell line), whole cells. The conditions noted are these: THP-1 cells, 0.1 nM 125I-MCP-1, 1 hr at room temperature; read-out: Inhibition of 125I-MCP-1 binding to THP-1 cells, IC50. The protocol: Antagonism of the CCR2 receptor is determined by a binding assay using the human monocytic cell line THP-1. Cells are suspended in assay buffer (RPMI+1% BSA+25 mM HEPES) at 3×10^6 cells/ml and an aliquot (180 μl) added to a 0.5 ml siliconized Eppendorf tube. […] After incubation for 1 hr at room temperature, the cell suspension is centrifuged through oil and the cell pellets counted to quantitate cell-bound ligand. Nonspecific (NS) binding of radioligand is determined by the addition of 100 nM cold MCP-1. Control binding is determined by the addition of buffer without compound.

The target of data set [2] is T1, CCR2. The experiment in a line: Chemotaxis assay: MCP-1 induced migration of THP-1 cells. The format is cell-based. Set-up: endogenous in cells; host or cells: THP-1 cells. The note with it: 3 nM MCP-1, 37° C. for 2 hr, read-out: Inhibition of cell chemotaxis, IC50. The protocol:
Antagonism of CCR2 function is determined by a chemotaxis assay. MCP-1 is prepared in buffer (Hanks+0.1% human serum albumin) at 3 nM concentration and aliquoted into the bottom chambers of a 96-well chemotaxis plate (Neuroprobe). THP-1 cells are suspended in the same buffer at 1×10^7 cells/ml and compound added at various concentrations to the aliquots of cells. The cell and compound mixture is added to the top of the polycarbonate membrane (5 μm pore diameter) and the chemotaxis plate incubated at 37° C. for 2 hr. After the unmigrated cells are scraped off the top of the filter, the plate is gently centrifuged and the membrane removed. Cells which migrate to the bottom chamber are quantitated by counting with a hemacytometer. Spontaneous chemotaxis is determined by measuring cell migration in the absence of chemokine. Chemotaxis of a positive control is determined by measuring cell migration without compound. Inhibition of cell chemotaxis is determined as an IC50.

Take `CC(=O)C1=C(O)C(=O)N(c2ccc(C)cc2)C1C1CCCCC1` (racemic) [Compound 10, 4-acetyl-5-cyclohexyl-3-hydroxy-1-(4-methylphenyl)-1,5-dihydro-2H-pyrrol-2-one]: the IC50 on CCR2 [1] and on CCR2 [2] was no more than 5 µM throughout.
In the case of `CC(=O)C1=C(O)C(=O)N(c2ccc(Cl)cc2)C1C1CCCCC1` (racemic) [Compound 24, 4-acetyl-1-(4-chlorophenyl)-5-cyclohexyl-3-hydroxy-1,5-dihydro-2H-pyrrol-2-one], the IC50 at CCR2 [1] and at CCR2 [2] was no more than 5 µM throughout.
Turning to `CC(=O)C1=C(O)C(=O)N(c2ccc(Cl)c(C)c2)C1C1CCCCC1` (racemic) [Compound 53, 4-acetyl-1-(4-chloro-3-methylphenyl)-5-cyclohexyl-3-hydroxy-1,5-dihydro-2H-pyrrol-2-one], the IC50 at CCR2 [1] and at CCR2 [2] was no more than 5 µM in each case.
As for `CC(=O)C1=C(O)C(=O)N(c2ccc(Cl)c(C)c2)C1C1CCCC1` (racemic) [Compound 69, 4-acetyl-1-(4-chloro-3-methylphenyl)-5-cyclopentyl-3-hydroxy-1,5-dihydro-2H-pyrrol-2-one], the IC50 on CCR2 [1] and on CCR2 [2] was no more than 5 µM each time.
Consider `CC(=O)C1=C(O)C(=O)N(c2ccc(Cl)cc2)[C@@H]1C12CC3CC(CC1C3)C2` [Compound 156, (R)-4-acetyl-1-(4-chlorophenyl)-3-hydroxy-5-tricyclo[3.3.1.0˜3,7˜]non-3-yl-1,5-dihydro-2H-pyrrol-2-one], for which the IC50 on CCR2 [1] and on CCR2 [2] was no more than 5 µM each time.
In turn, `CCOC(=O)OC1=C(C(C)=O)[C@@H](C2CCCCC2)N(c2ccc(Cl)cc2F)C1=O` [Compound P1, (5R)-4-acetyl-1-(4-chloro-2-fluorophenyl)-5-cyclohexyl-2-oxo-2,5-dihydro-1H-pyrrol-3-yl ethyl carbonate] had a melting point of 74 °C.
